Melting point data for 65 compounds are collected here from a melting point compilation (Tetko et al.; mined from patent text by program, amines drawn as free bases though some values may be those of a salt).

A value given as a limit tells only on which side of the number the result lay.

Compound `Cc1nn(-c2ccc(C(F)(F)F)cn2)cc1COc1cccc(CC(=O)O)c1` had a melting point of 142 to 143 °C. For `CC=CC(=O)Nc1n[nH]c2ccc(C)cc12` the value was 218 °C; for `C=CON=C(C(=O)OCC)c1csc(NC(c2ccccc2)(c2ccccc2)c2ccccc2)n1`, 114 °C; for `CNc1ccccc1C(O)c1ccccc1` (stereo not given), 124 to 126 °C. As to `O=C1CN2C(=N1)NCc1c(Cl)cccc12`, the melting point was in the range of 127 to 129 °C. The value for `CCNC(=O)N(CC)C(=O)c1nc(Cl)c(Cl)[nH]1` was 146 °C; that for `CN1C(=O)N(c2c(Cl)cccc2Cl)Cc2cnc(N)nc21` was 176 to 184 °C. The value for `Cc1nccn1-c1cccc(-n2cnc3cc(-c4ccoc4)ccc32)c1` was 105 to 107 °C; that for `CC(C)(C)NC(=O)N1CCn2c(c(C(N)=O)c(Br)c2C2CC2)C1` was 204 to 208 °C; that for `CC(C)CC(C#N)NC(=O)C1CCCCC1NC(=O)OCc1ccccc1` (stereo not given) was 104 to 106 °C. The value for `CC1(C)CC(N)CC(C)(C)N1Cc1ccccc1` was 73 to 75 °C; that for `O=C(O)c1ccc(-c2nc(-c3ccc(C(F)(F)F)cc3)co2)cc1` was 258 to 259 °C. `CNC(=S)C1=CC(C)(CF)Oc2ccc([N+](=O)[O-])cc21` (stereo not given) had a melting point of 141 to 144 °C. The compound `N#CC1CN1Cc1ccc(C(=O)O)s1` (stereo not given) showed a melting point of 108 to 111 °C.

In the case of `Cc1cc(F)ccc1-c1nc(NC2CCCCC2)nc2c1CCC(=O)N2c1ccccc1F`, the melting point was 181 to 182 °C. `CCC(c1ccccc1)c1n[nH]c2c1c(=O)n(-c1ccccc1)c1ncccc21` (stereo not given) yielded a melting point of 233 to 235 °C. As to `COc1cc2c(cc1OC)C1CC(=O)C3CCCCC3N1CC2` (stereo not given), the melting point lay in the range of 129 to 141 °C. For `CCCc1nc(CO)c(C(=O)O)n1Cc1cc2c(cc1Cl)OCO2` the value was 240 °C; for `Cc1nc(-c2cccc(-c3nc4sccn4c3-c3ccnc(N[C@@H]4CCCNC4)n3)c2)no1`, 203 to 207 °C; for `CC(c1ccccc1)C1(OC(=O)C(C)(C)C)C(=O)NC(=O)NC1=O` (stereo not given), 205 to 207 °C.

On to `Cn1c(CC#N)ccc1C(=O)c1ccc([N+](=O)[O-])cc1`, for which the melting point lay within 167 to 169 °C. The value for `COc1ccc(Cn2nnnc2C(O)c2ccccc2Cl)cc1` (racemic) was 128 to 130 °C; that for `CCC(=O)Nc1ccnn1-c1ncc(Cl)cc1Cl` was 116 to 124 °C. The value for `c1cc(Cc2cc3ccccc3[nH]2)cc(-c2cc3ccccc3[nH]2)c1` was 193 to 194 °C; that for `Cc1cc(O)ccc1OCc1ccccc1` was 70 to 71 °C; that for `CN(C)CCCCNc1nc2cc(Cl)c(Cl)cc2nc1-c1ccccn1` was 81 to 83 °C. As for `COC(=O)C=Cc1ccccc1C#N`, the melting point was 92 to 93 °C. The value for `C=CC(=O)NCc1c(-c2ccccc2)n[nH]c1C` was 191 to 193 °C. `O=COC(CCl)(CC(Cl)(Cl)Cl)c1cc(Cl)cc(Cl)c1` (stereo not given) registered a melting point of 115 to 117 °C. For the compound `O=S(=O)(CCCl)CCC(F)(F)C(F)(F)C(F)(F)C(F)(F)C(F)(F)C(F)(F)C(F)(F)C(F)(F)F`, the melting point was in the range of 130 to 131 °C. On to `CC(O)(C=Cc1ccc(S(=O)(=O)N2CCCC2)cc1)C(F)(F)F` (stereo not given), for which the melting point was in the range of 119 to 121 °C. For the compound `CC(C)(C)OC(=O)n1ccc(-c2ccc(F)cc2)c1-c1ccc(S(C)(=O)=O)cc1`, the melting point turned out to be 262 °C.

The compound `CC(=O)Nc1ccc(Sc2nc(Nc3cc(C)n[nH]3)cc(-c3ccccc3C)n2)cc1` gave a melting point of 212 to 214 °C. `O=c1ccc2cc(OC3O[C@H](CO)[C@@H](O)[C@H](O)[C@H]3O)c(OCc3ccccc3)cc2o1` (stereo not given in full) displayed a melting point of 184 to 186 °C.

`COC(=O)[C@H]1[C@H](C(=O)OC)C1(Br)C=O` (stereo not given in full) returned a melting point of 52 °C. `Cc1nc(-c2cc3cccc(OC[C@@H](O)CN4CCC(c5ccc6ccccc6c5)CC4)c3o2)no1` registered a melting point of 169 to 170 °C. The compound `COc1cccc([Si](C)(C)COc2cc(C(C)(C)C)c(O)c(C(C)(C)C)c2)c1OC` gave a melting point of 94.5 to 96 °C. For `COC(=O)C1C(=O)Nc2ccccc2CC1c1ccc(OC)cc1` (stereo not given) the value was 217 to 219 °C; for `CCNC(=O)Nc1nc2cc(OCc3ccccc3)cc(Br)c2s1`, 294 °C; for `CC(S)C(O)(Cn1cncn1)c1ccc(F)cc1F` (stereo not given), 145 to 147 °C.

On to `COC(=O)C(O)Cc1ccc(OCCN(C)c2nc3ccccc3o2)cc1` (stereo not given), for which the melting point lay within 100 to 112 °C. The compound `O=c1ccn(-c2cc3[nH]c(=O)c(=O)[nH]c3cc2C(F)(F)F)cc1` returned a melting point of 410 to 420 °C.

`O=Cc1ccc(OC2OC(CO)C(O)C(O)C2O)c2ccccc12` (stereo not given) came in with a melting point of less than 255 °C. Take `CCCN(CCC)c1c(CC)nn2c(-c3ccc(N(C)C)cc3C(F)(F)F)cccc12`: the melting point lay in the range of 69.1 to 79.8 °C.

The compound `CCN1CS(=C2SC(=S)N(Cc3ccccc3)C2=O)c2ccccc21` (stereo not given) gave a melting point of 209 to 211 °C. For `COC(=O)c1ccc(COC(C)=O)nc1C1=NC(C)(C(C)C)C(=O)N1C(C)=O` (stereo not given) the value was 111 to 112 °C; for `O=Cc1ccc(N(CCO)CCO)cc1`, 63 to 64 °C; for `CN1C(=S)N(c2ccc(Cl)c(Cl)c2)C(=N)C1(C)C`, 133 °C.

For `Cc1c(-c2ccccc2)c(N2CC[C@H](N(C)C)C2)c2oc(-c3ccccc3O)nc2c1C#N`, the melting point lay within 159 to 162 °C.

Compound `O=C1N(Cc2ncc(F)cc2F)c2ccccc2C12COc1cc3c(cc12)OCCO3` (stereo not given) gave a melting point of 220 to 222 °C. The value for `COc1ccc(C=NO)cc1OCCCCCc1ccccc1` was 65 to 67 °C; that for `c1ccc2c(OC[C@H]3CCCN3c3ncnc4[nH]cnc34)ccc(CN3CCOCC3)c2c1` was 134 to 138 °C. The value for `Nc1ccc2cccc(Oc3cc(-c4ccc(C(F)(F)F)cc4)ccn3)c2n1` was 196 to 200 °C; that for `COc1cn(-c2ccc(O)cc2F)nc(-c2ccnn2-c2ccccc2)c1=O` was 223 to 224 °C. For `CNCC1CN(c2ccc3ccccc3c2)C(=O)O1` (stereo not given) the value was 76.5 to 78 °C; for `COc1nc(SC)nc(Cl)c1C(=O)NCc1ncccn1`, 176 to 177 °C; for `CCOC(=O)Nc1nc(-c2ccccc2)c(-c2nc3ccccc3c(=O)n2-c2ccc(C)cc2)s1`, greater than 275 °C. In the case of `COC1CCCCC1(O)c1ccncc1` (stereo not given), the melting point lay in the range of 98 to 101 °C. In the case of `CCc1ccc2c(c1)OC1(O)c3cccc([N+](=O)[O-])c3C(=O)C21O` (stereo not given), the melting point lay within 110 to 120 °C. For `BrCc1ccc(CCc2ccccc2)cc1` the value was 52 to 53 °C; for `CCCCCN(C(=O)Oc1ccc(C(=O)O)cc1)c1ccc2c(c1)C(C)(C)CCC2(C)C`, 100 to 102 °C. The value for `Cc1ccc2c(=O)n3nc(C)cc3[nH]c2n1` was greater than 300 °C; that for `COC(=O)c1cccc(NC(N)=NC#N)c1` was 203 to 204 °C. `O=[N+]([O-])c1cc(-c2nnn[nH]2)ccc1OCc1ccccc1` gave a melting point of 178 to 180 °C. As to `CS(=O)(=O)NC(=O)NCCCc1ccc2c(NC(=O)CC3CCCCC3)c(Cl)ccc2n1`, the melting point lay in the range of 151 to 152 °C.
